According to patent US6737383B1, “Herbicidal oxadiazolidines” (priority 1999, dated 2004):

What was measured:
sugar beet = experiment: Test B pre/postemergence sugar beet; format: in vivo, Beta vulgaris
How it was run: (§1)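 Herbicidal effect was estimated by eye on a ten-point control scale after plants spent twelve to sixteen days in a greenhouse following soil or foliar treatment. Foliar sprays targeted plants at one to four leaves; all doses were formulated in a non-phytotoxic solvent with surfactant.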

cocklebur = experiment: Test B pre/postemergence cocklebur; format: in vivo, Xanthium strumarium
How it was run: as §1

bamyardgrass = experiment: Test B flood test barnyardgrass; format: in vivo, Echinochloa crus-galli
How it was run: (§2)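 Flood test on plants grown to the 2-leaf stage; treated plants kept in greenhouse twelve to sixteen days, then visually rated against controls on a 0 (no effect) to 10 (complete control) scale.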

crabgrass = experiment: Test B pre/postemergence crabgrass; format: in vivo, Digitaria sanguinalis
How it was run: as §1

wild oat = experiment: Test B pre/postemergence wild oat; format: in vivo, Avena fatua
How it was run: as §1

rape = experiment: Test B pre/postemergence rape; format: in vivo, Brassica napus
How it was run: as §1

bedstraw = experiment: Test B pre/postemergence bedstraw; format: in vivo, Galium aparine
How it was run: as §1

morningglory = experiment: Test B pre/postemergence morningglory; format: in vivo, Ipomoea hederacea
How it was run: as §1

velvetleaf = experiment: Test B pre/postemergence velvetleaf; format: in vivo, Abutilon theophrasti
How it was run: as §1

blackgrass = experiment: Test B pre/postemergence blackgrass; format: in vivo, Alopecurus myosuroides
How it was run: as §1

surinam grass = experiment: Test B pre/postemergence surinam grass; format: in vivo, Brachiaria decumbens
How it was run: as §1

giant foxtail = experiment: Test B pre/postemergence giant foxtail; format: in vivo, Setaria faberii
How it was run: as §1

pigweed = experiment: Test B pre/postemergence pigweed; format: in vivo, Amaranthus retroflexus
How it was run: as §1

rice = experiment: Test B flood test rice; format: in vivo, Oryza sativa
How it was run: as §2

corn = experiment: Test B pre/postemergence corn; format: in vivo, Zea mays
How it was run: as §1

smallflower flatsedge = experiment: Test B flood test smallflower flatsedge; format: in vivo, Cyperus difformis
How it was run: as §2

[1] = Preemergence, Rate 62 g/ha, scale of 0 to 10 where 0 is no effect and 10 is complete control
[2] = Preemergence, Rate 125 g/ha, 0 is no effect, 10 is complete control
[3] = Preemergence, Rate 250 g/ha, scale 0 to 10, 0 is no effect, 10 is complete control
[4] = Preemergence, Rate 500 g/ha, scale of 0 to 10 where 0 is no effect and 10 is complete control
[5] = Rate 62 g/ha, Postemergence, scale of 0 to 10 where 0 is no effect and 10 is complete control
[6] = Rate 125 g/ha, Postemergence, scale 0 to 10
[7] = Rate 500 g/ha, Postemergence, scale 0 to 10
[8] = Rate 31 g/ha, Pre-emergence section (flood test species), scale 0 to 10
[9] = Rate 62 g/ha, headed Pre-emergence (flood test species), scale 0 to 10 (0 no effect, 10 complete control)
[10] = Rate 125 g/ha, Pre-emergence, flood test species, scale 0 to 10 where 0 is no effect and 10 is complete control
[11] = Rate 250 g/ha, Pre-emergence, flood-test species, scale 0 to 10, 0 is no effect, 10 is complete control
[12] = Rate 500 g/ha, headed Pre-emergence (flood test species), scale 0 to 10 (0 no effect, 10 complete control)

Cc1nc(C)c(-n2c(=O)on(C(=O)N(c3ccc(Cl)cc3)C(C)C)c2=O)s1 [Compound 196]
0: Sugarbeets plant response rating (sugar beet; [1]) | Sugarbeets plant response rating (0 to 10 scale) (sugar beet; [2]) | Sugarbeets plant response rating (sugar beet; [3]) | Plant response rating, Sugarbeets (sugar beet; [4]) | Sugarbeets plant response rating (sugar beet; [5]) | Sugarbeets plant response rating (sugar beet; [6]) | Plant response rating (0 to 10; 0 is no effect, 10 is complete control), Sugarbeets (sugar beet; Rate 250 g/ha, Postemergence) | Sugarbeets plant response rating (sugar beet; [7]) | Cocklebur plant response rating (cocklebur; [1]) | Cocklebur plant response rating (0 to 10 scale) (cocklebur; [2]) | Cocklebur plant response rating (cocklebur; [3]) | Plant response rating, Cocklebur (cocklebur; [4]) | Cocklebur plant response rating (cocklebur; [5]) | Cocklebur plant response rating (cocklebur; [6]) | Plant response rating (0 to 10; 0 is no effect, 10 is complete control), Cocklebur (cocklebur; Rate 250 g/ha, Postemergence) | Cocklebur plant response rating (cocklebur; [7]) | Barnyardgrass plant response rating (bamyardgrass; [8]) | Barnyardgrass plant response rating (bamyardgrass; [9]) | Barnyardgrass plant response rating (bamyardgrass; [10]) | Barnyardgrass plant response rating (bamyardgrass; [11]) | Plant response rating, Barnyardgrass (bamyardgrass; [12]) | Crabgrass plant response rating (crabgrass; [1]) | Crabgrass plant response rating (0 to 10 scale) (crabgrass; [2]) | Crabgrass plant response rating (crabgrass; [3]) | Plant response rating, Crabgrass (crabgrass; [4]) | Crabgrass plant response rating (crabgrass; [5]) | Crabgrass plant response rating (crabgrass; [6]) | Plant response rating (0 to 10; 0 is no effect, 10 is complete control), Crabgrass (crabgrass; Rate 250 g/ha, Postemergence) | Crabgrass plant response rating (crabgrass; [7]) | Wild oats plant response rating (wild oat; [1]) | Wild oats plant response rating (wild oat; [3]) | Plant response rating, Wild oats (wild oat; [4]) | Wild oats plant response rating (wild oat; [5]) | Wild oats plant response rating (wild oat; [6]) | Plant response rating (0 to 10; 0 is no effect, 10 is complete control), Wild oats (wild oat; Rate 250 g/ha, Postemergence) | Rape plant response rating (rape; [1]) | Rape plant response rating (0 to 10 scale) (rape; [2]) | Rape plant response rating (rape; [3]) | Plant response rating, Rape (rape; [4]) | Rape plant response rating (rape; [5]) | Rape plant response rating (rape; [6]) | Plant response rating (0 to 10; 0 is no effect, 10 is complete control), Rape (rape; Rate 250 g/ha, Postemergence) | Rape plant response rating (rape; [7]) | Bedstraw plant response rating (bedstraw; [1]) | Bedstraw plant response rating (0 to 10 scale) (bedstraw; [2]) | Bedstraw plant response rating (bedstraw; [3]) | Plant response rating, Bedstraw (bedstraw; [4]) | Bedstraw plant response rating (bedstraw; [5]) | Bedstraw plant response rating (bedstraw; [6]) | Plant response rating (0 to 10; 0 is no effect, 10 is complete control), Bedstraw (bedstraw; Rate 250 g/ha, Postemergence) | Bedstraw plant response rating (bedstraw; [7]) | Morningglory plant response rating (morningglory; [1]) | Morningglory plant response rating (0 to 10 scale) (morningglory; [2]) | Morningglory plant response rating (morningglory; [3]) | Plant response rating, Morningglory (morningglory; [4]) | Morningglory plant response rating (morningglory; [5]) | Morningglory plant response rating (morningglory; [6]) | Plant response rating (0 to 10; 0 is no effect, 10 is complete control), Morningglory (morningglory; Rate 250 g/ha, Postemergence) | Morningglory plant response rating (morningglory; [7]) | Velvetleaf plant response rating (velvetleaf; [1]) | Velvetleaf plant response rating (velvetleaf; [3]) | Plant response rating, Velvetleaf (velvetleaf; [4]) | Velvetleaf plant response rating (velvetleaf; [5]) | Velvetleaf plant response rating (velvetleaf; [6]) | Plant response rating (0 to 10; 0 is no effect, 10 is complete control), Velvetleaf (velvetleaf; Rate 250 g/ha, Postemergence) | Blackgrass plant response rating (blackgrass; [1]) | Blackgrass plant response rating (0 to 10 scale) (blackgrass; [2]) | Blackgrass plant response rating (blackgrass; [3]) | Plant response rating, Blackgrass (blackgrass; [4]) | Blackgrass plant response rating (blackgrass; [5]) | Blackgrass plant response rating (blackgrass; [6]) | Plant response rating (0 to 10; 0 is no effect, 10 is complete control), Blackgrass (blackgrass; Rate 250 g/ha, Postemergence) | Blackgrass plant response rating (blackgrass; [7]) | B. signalgrass plant response rating (surinam grass; [1]) | B. signalgrass plant response rating (0 to 10 scale) (surinam grass; [2]) | B. signalgrass plant response rating (surinam grass; [3]) | Plant response rating, B. signalgrass (surinam grass; [4]) | B. signalgrass plant response rating (surinam grass; [5]) | B. signalgrass plant response rating (surinam grass; Rate 125 g/ha, Postemergence, scale 0 (no effect) to 10 (complete control)) | Plant response rating, B. signalgrass (surinam grass; Rate 250 g/ha, Postemergence, scale 0 to 10, 0 is no effect, 10 is complete control) | B. signalgrass plant response rating (surinam grass; Rate 500 g/ha, Postemergence, scale 0 to 10, 0 no effect, 10 complete control) | Giant foxtail plant response rating (giant foxtail; [1]) | Giant foxtail plant response rating (0 to 10 scale) (giant foxtail; [2]) | Giant foxtail plant response rating (giant foxtail; [3]) | Plant response rating, Giant foxtail (giant foxtail; [4]) | Giant foxtail plant response rating (giant foxtail; [5]) | Giant foxtail plant response rating (giant foxtail; [6]) | Plant response rating (0 to 10; 0 is no effect, 10 is complete control), Giant foxtail (giant foxtail; Rate 250 g/ha, Postemergence) | Giant foxtail plant response rating (giant foxtail; [7]) | Redroot pigweed plant response rating (pigweed; [1]) | Redroot pigweed plant response rating (0 to 10 scale) (pigweed; [2]) | Redroot pigweed plant response rating (pigweed; [3]) | Plant response rating, Redroot pigweed (pigweed; [4]) | Redroot pigweed plant response rating (pigweed; [5]) | Redroot pigweed plant response rating (pigweed; [6]) | Plant response rating (0 to 10; 0 is no effect, 10 is complete control), Redroot pigweed (pigweed; Rate 250 g/ha, Postemergence) | Redroot pigweed plant response rating (pigweed; [7]) | Rice plant response rating (rice; [8]) | Rice plant response rating (rice; [9]) | Rice plant response rating (rice; [10]) | Rice plant response rating (rice; [11]) | Plant response rating, Rice (rice; [12]) | Corn plant response rating (corn; [1]) | Corn plant response rating (0 to 10 scale) (corn; [2]) | Corn plant response rating (corn; [3]) | Plant response rating, Corn (corn; [4]) | Corn plant response rating (corn; [5]) | Corn plant response rating (corn; [6]) | Plant response rating (0 to 10; 0 is no effect, 10 is complete control), Corn (corn; Rate 250 g/ha, Postemergence) | Corn plant response rating (corn; [7]) | S. Flatsedge plant response rating (smallflower flatsedge; [8]) | S. Flatsedge plant response rating (smallflower flatsedge; [9]) | S. Flatsedge plant response rating (smallflower flatsedge; [10]) | S. Flatsedge plant response rating (smallflower flatsedge; [11]) | S. Flatsedge plant response rating (smallflower flatsedge; Rate 500 g/ha, Pre-emergence, flood test species, scale 0 to 10 (0 no effect, 10 complete control))
